Reference: publication PMC11695783 (Frontiers in Pharmacology, 2024)

System: inflammatory cells in BALF (neutrophils, macrophages, lymphocytes)
Assay: Inflammatory cell analysis in BALF of M. pneumoniae-infected mice
Format: in vivo, BALB/c mice
Conditions: for number of cells in BALF four days following treatment cessation: 192 h, similar to control group (P> 0.05)
Protocol: Adult BALB/c mice (20–22 g) were divided into a control group, a positive group, and compound 16C groups at low (20 mg/kg), medium (40 mg/kg), and high-dose (80 mg/kg) levels and oral and intramuscular tiamulin treatment groups (40 mg/kg). We formulated the above dose range based on the dose at which tiamulin was approved for injection (10–20 mg/kg) and the dose previously reported (45 mg/kg) ([EMA, 1999]; [Xiao et al., 2016]). In summary, we selected similar doses for compound 16C in vivo study. 40 mg/kg was used as an intermediate value, one-half of it as a low dose, and two times of it as a high dose. To prepare the challenge solution, logarithmic phase culture suspensions were centrifuged at 1700 g for 10 min, and the pellets were suspended in sterile PBS to obtain 1 × 10^9 CFU/mL. Before the challenge, mice were anesthetized with tribromoethanol (250 mg/kg, IP). Mice in the control groups were intratracheally inoculated with sterile PBS, whereas mice in the other groups were intratracheally challenged with 50 μL (1 × 10^9 CFU/mL) M. pneumoniae suspension once a day for 3 days. Compound 16C and tiamulin (tiamulin-IM group) dissolved using the method mentioned in pharmacokinetic studies, and the tiamulin fumarate soluble powder was dissolved in ddH2O for oral administration. After the final challenge, antibiotics were administered at low, medium, and high-dose levels (see above) at 10 a.m. and 10 p.m. daily for 4 consecutive days. Normal saline containing 5% DMSO and 5% Tween-80 was administered as control and positive groups by thigh intramuscular injection. To compare the efficacy of compound 16C and tiamulin under the same route of administration, we used the original tiamulin for intramuscular administration in the same formulation. On the other hand, tiamulin fumarate soluble powder, approved for oral administration to treat animal mycoplasma diseases in China, was administered to mice by gavage. Based on a clinical study of lefamulin in community-acquired bacterial pneumonia (CABP), subjects were administered twice a day and the 96 ± 24 h of starting treatment was an essential point for early clinical response (ECR) ([Paukner et al., 2022]). We therefore stopped treatment at 96 h and sampled at 192 h to explore whether the disease worsened after cessation of treatment. Bronchoalveolar lavage fluid (BALF) and lungs were collected at 0, 96, 192 h (Samples of 0 h were collected before starting treatment, and mice were fed ad libitum without drug treatment during 96–192 h) after the first dose, BALF for cytokine and cytological analysis and lung for histopathological evaluation.
Bronchoalveolar lavage was performed according to a standardized method ([Van Hoecke et al., 2017]). BALF was obtained following infusion of 0.5 mL PBS via tracheal cannulation into the lung twice (total 1 mL), and 200 µL was used for mycoplasma counts. The remaining BALF was centrifuged at 300 g for 10 min to separate the debris. The supernatants were stored at −80°C, and the debris was resuspended in the same volume of PBS containing red blood cell lysis buffer. A hemocytometer was used to count total cell numbers in BALF, and cell smears (Diff-Quik staining) were prepared to calculate the percentages of neutrophils, macrophages, and lymphocytes. IFN-γ, TNF-α, and CXCL1 levels in BALF samples were assessed using commercial ELISA kits using guidelines recommended by the manufacturer (Elabscience, Wuhan, China). Parallel data for each experimental group at each time point were obtained from six different mice.

[1] = Tiamulin(40mg/kg) group, time 0
[2] = Tiamulin(40mg/kg) group, time 96
[3] = Tiamulin(40mg/kg) group, time 192

For C=CC1(C)CC(OC(=O)CSc2ccc(NC(=O)Cc3ccc([N+](=O)[O-])cc3)cc2)C2(C)C(C)CCC3(CCC(=O)C32)C(C)C1O (centres unmarked) [compound 16C, 22–((4-((4-nitrophenyl)acetamido)phenyl)thio)deoxypleuromutilin], the “cell counts, total (AV)” value (20mg/kg, time 0) was 48.3833 n*10^5, the “cell counts, 中 (neutrophils) (AV)” value (20mg/kg, time 0) was 42.2036 n*10^5 and the “cell counts, 巨 (macrophages) (AV)” value (20mg/kg, time 0) was 5.64 n*10^5. The “cell counts, 淋 (lymphocytes) (AV)” value (20mg/kg, time 0) was 0.5399 n*10^5, the “cell counts, total (AV)” value (20mg/kg, time 96) was 8.192 n*10^5 and the “cell counts, 中 (neutrophils) (AV)” value (20mg/kg, time 96) was 1.83 n*10^5. For the same compound, the “cell counts, 巨 (macrophages) (AV)” value (20mg/kg, time 96) was 3.157 n*10^5, the “cell counts, 淋 (lymphocytes) (AV)” value (20mg/kg, time 96) was 3.205 n*10^5 and the “cell counts, total (AV)” value (20mg/kg, time 192) was 2.917 n*10^5. For the same compound, the “cell counts, 中 (neutrophils) (AV)” value (20mg/kg, time 192) was 1.486 n*10^5, the “cell counts, 巨 (macrophages) (AV)” value (20mg/kg, time 192) was 0.8746 n*10^5 and the “cell counts, 淋 (lymphocytes) (AV)” value (20mg/kg, time 192) was 0.5558 n*10^5. The “cell counts, total (AV)” value (40mg/kg, time 0) was 47.0528 n*10^5, the “cell counts, 中 (neutrophils) (AV)” value (40mg/kg, time 0) was 40.6758 n*10^5 and the “cell counts, 巨 (macrophages) (AV)” value (40mg/kg, time 0) was 4.508 n*10^5. The “cell counts, 淋 (lymphocytes) (AV)” value (40mg/kg, time 0) was 1.869 n*10^5, the “cell counts, total (AV)” value (40mg/kg, time 96) was 7.083 n*10^5 and the “cell counts, 中 (neutrophils) (AV)” value (40mg/kg, time 96) was 2.373 n*10^5. For the same compound, the “cell counts, 巨 (macrophages) (AV)” value (40mg/kg, time 96) was 2.398 n*10^5, the “cell counts, 淋 (lymphocytes) (AV)” value (40mg/kg, time 96) was 2.312 n*10^5 and the “cell counts, total (AV)” value (40mg/kg, time 192) was 3.683 n*10^5. For the same compound, the “cell counts, 中 (neutrophils) (AV)” value (40mg/kg, time 192) was 1.76 n*10^5, the “cell counts, 巨 (macrophages) (AV)” value (40mg/kg, time 192) was 0.9141 n*10^5 and the “cell counts, 淋 (lymphocytes) (AV)” value (40mg/kg, time 192) was 1.009 n*10^5. For the same compound, the “cell counts, total (AV)” value (80mg/kg, time 0) was 35.9167 n*10^5, the “cell counts, 中 (neutrophils) (AV)” value (80mg/kg, time 0) was 31.0489 n*10^5 and the “cell counts, 巨 (macrophages) (AV)” value (80mg/kg, time 0) was 3.441 n*10^5. For the same compound, the “cell counts, 淋 (lymphocytes) (AV)” value (80mg/kg, time 0) was 1.427 n*10^5, the “cell counts, total (AV)” value (80mg/kg, time 96) was 2.675 n*10^5 and the “cell counts, 中 (neutrophils) (AV)” value (80mg/kg, time 96) was 0.2904 n*10^5. For the same compound, the “cell counts, 巨 (macrophages) (AV)” value (80mg/kg, time 96) was 0.8707 n*10^5, the “cell counts, 淋 (lymphocytes) (AV)” value (80mg/kg, time 96) was 1.514 n*10^5 and the “cell counts, total (AV)” value (80mg/kg, time 192) was 2.742 n*10^5. For the same compound, the “cell counts, 中 (neutrophils) (AV)” value (80mg/kg, time 192) was 0.4795 n*10^5, the “cell counts, 巨 (macrophages) (AV)” value (80mg/kg, time 192) was 1.166 n*10^5 and the “cell counts, 淋 (lymphocytes) (AV)” value (80mg/kg, time 192) was 1.096 n*10^5. The “number of cells in BALF four days following treatment cessation” value (compound 16C 20, 40, and 80 mg/kg dose groups) was “lower than that of the positive control” and the “total number of inflammatory cells in BALF compared with the positive controls” value (compound 16C low-dose (20 mg/kg IM), after 4 days of treatment (96 h)) was “not statistically significant”.
For C=C[C@]1(C)C[C@@H](OC(=O)CSCCN(CC)CC)[C@]2(C)[C@H](C)CC[C@]3(CCC(=O)[C@H]32)[C@@H](C)[C@@H]1O [tiamulin, Tiamulin, reference compound], the “cell counts, total (AV)” value [1] was 30.4125 n*10^5, the “cell counts, 中 (neutrophils) (AV)” value [1] was 26.5281 n*10^5 and the “cell counts, 巨 (macrophages) (AV)” value [1] was 3.545 n*10^5. The “cell counts, 淋 (lymphocytes) (AV)” value [1] was 0.3394 n*10^5, the “cell counts, total (AV)” value [2] was 9.854 n*10^5 and the “cell counts, 中 (neutrophils) (AV)” value [2] was 1.672 n*10^5. The “cell counts, 巨 (macrophages) (AV)” value [2] was 3.529 n*10^5, the “cell counts, 淋 (lymphocytes) (AV)” value [2] was 4.653 n*10^5 and the “cell counts, total (AV)” value [3] was 10.35 n*10^5. The “cell counts, 中 (neutrophils) (AV)” value [3] was 0.1129 n*10^5, the “cell counts, 巨 (macrophages) (AV)” value [3] was 3.034 n*10^5 and the “cell counts, 淋 (lymphocytes) (AV)” value [3] was 7.204 n*10^5. The “total number of inflammatory cells in BALF compared with the positive controls” value (tiamulin intramuscular 40 mg/kg, 96 h) was “significantly lower”, the “number of cells in BALF four days following treatment cessation” value (tiamulin intramuscular 40 mg/kg) was “lower than that of the positive control” and the “total number of inflammatory cells in BALF compared with the positive controls” value (tiamulin orally administered 40 mg/kg, 96 h) was “not statistically significant”.
